Measured values taken from the supplement of paper PMC10307832.

Key:
Test in all cases: relative viability (nuclei count vs DMSO), 5 days (fraction); higher = more cells survive
KN-93 = compound: CN(C/C=C/C1=CC=C(C=C1)Cl)CC2=CC=CC=C2N(CCO)S(=O)(=O)C3=CC=C(C=C3)OC [KN-93]
In short: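 Following overnight incubation at 37 °C, lung cancer cell lines in 1536-well plates were pinned with five library-drug doses (not always all listed) in √10 steps on vehicle-anchored plates. The cells then spent 5 days without medium change before a combined fix, permeabilisation and Hoechst stain, 4× imaging and MetaXpress nuclear counts. Viability is the treated-to-vehicle ratio of nuclei, taken as the median across plates. Only plates with control CV below 25% and at least one doubling passed.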

KN-93 + Vorinostat = compound: CN(C/C=C/C1=CC=C(C=C1)Cl)CC2=CC=CC=C2N(CCO)S(=O)(=O)C3=CC=C(C=C3)OC [KN-93] + O=C(CCCCCCC(=O)Nc1ccccc1)NO [Vorinostat] (partner 1 µM)
In short: (§1)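 Relative viability divides the nuclei count in treated wells by that in vehicle wells. Lung cancer cell lines were seeded in 1536-well plates, dosed by pin tool the next day, and fixed and stained after 5 days in one step with final 0.05% Triton X-100, 1% formaldehyde and 1 ug/ml Hoechst. Dosing was a single drug or a fixed anchor-drug dose plus five library-drug doses (not always all listed) in √10 steps, and values are medians of duplicate plates imaged at 4×.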

KN-93 + AZD7762 = compound: CN(C/C=C/C1=CC=C(C=C1)Cl)CC2=CC=CC=C2N(CCO)S(=O)(=O)C3=CC=C(C=C3)OC [KN-93] + NC(=O)Nc1cc(-c2cccc(F)c2)sc1C(=O)N[C@H]1CCCNC1 [AZD7762] (partner 0.2 µM)
In short: as §1

KN-93 + Dasatinib = compound: CN(C/C=C/C1=CC=C(C=C1)Cl)CC2=CC=CC=C2N(CCO)S(=O)(=O)C3=CC=C(C=C3)OC [KN-93] + Cc1nc(Nc2ncc(C(=O)Nc3c(C)cccc3Cl)s2)cc(N2CCN(CCO)CC2)n1 [Dasatinib] (partner 0.075 µM)
In short: as §1

KN-93 + Tozasertib = compound: CN(C/C=C/C1=CC=C(C=C1)Cl)CC2=CC=CC=C2N(CCO)S(=O)(=O)C3=CC=C(C=C3)OC [KN-93] + Cc1cc(Nc2cc(N3CCN(C)CC3)nc(Sc3ccc(NC(=O)C4CC4)cc3)n2)n[nH]1 [Tozasertib] (partner 0.1 µM)
In short: as §1

KN-93 + Olaparib = compound: CN(C/C=C/C1=CC=C(C=C1)Cl)CC2=CC=CC=C2N(CCO)S(=O)(=O)C3=CC=C(C=C3)OC [KN-93] + O=C(c1cc(Cc2n[nH]c(=O)c3ccccc23)ccc1F)N1CCN(C(=O)C2CC2)CC1 [Olaparib] (partner 8 µM)
In short: as §1

KN-93 + Palbociclib = compound: CN(C/C=C/C1=CC=C(C=C1)Cl)CC2=CC=CC=C2N(CCO)S(=O)(=O)C3=CC=C(C=C3)OC [KN-93] + CC(=O)c1c(C)c2cnc(Nc3ccc(N4CCNCC4)cn3)nc2n(C2CCCC2)c1=O [Palbociclib] (partner 0.5 µM)
In short: as §1

KN-93 + Foretinib = compound: CN(C/C=C/C1=CC=C(C=C1)Cl)CC2=CC=CC=C2N(CCO)S(=O)(=O)C3=CC=C(C=C3)OC [KN-93] + COc1cc2c(Oc3ccc(NC(=O)C4(C(=O)Nc5ccc(F)cc5)CC4)cc3F)ccnc2cc1OCCCN1CCOCC1 [Foretinib] (partner 0.25 µM)
In short: as §1

KN-93 + Decitabine = compound: CN(C/C=C/C1=CC=C(C=C1)Cl)CC2=CC=CC=C2N(CCO)S(=O)(=O)C3=CC=C(C=C3)OC [KN-93] + Nc1ncn([C@H]2C[C@H](O)[C@@H](CO)O2)c(=O)n1 [Decitabine] (partner 2 µM)
In short: as §1

KN-93 + Pemetrexed = compound: CN(C/C=C/C1=CC=C(C=C1)Cl)CC2=CC=CC=C2N(CCO)S(=O)(=O)C3=CC=C(C=C3)OC [KN-93] + Nc1nc2[nH]cc(CCc3ccc(C(=O)N[C@@H](CCC(=O)O)C(=O)O)cc3)c2c(=O)[nH]1 [Pemetrexed] (partner 0.2 µM)
In short: as §1

KN-93 + OSI-027 = compound: CN(C/C=C/C1=CC=C(C=C1)Cl)CC2=CC=CC=C2N(CCO)S(=O)(=O)C3=CC=C(C=C3)OC [KN-93] + COc1cccc2cc(-c3nc([C@H]4CC[C@H](C(=O)O)CC4)n4ncnc(N)c34)[nH]c12 [OSI-027] (partner 0.5 µM)
In short: as §1

KN-93 + Phenformin = compound: CN(C/C=C/C1=CC=C(C=C1)Cl)CC2=CC=CC=C2N(CCO)S(=O)(=O)C3=CC=C(C=C3)OC [KN-93] + N=C(N)NC(=N)NCCc1ccccc1 [Phenformin] (partner 250 µM)
In short: as §1

KN-93 + Trametinib = compound: CN(C/C=C/C1=CC=C(C=C1)Cl)CC2=CC=CC=C2N(CCO)S(=O)(=O)C3=CC=C(C=C3)OC [KN-93] + CC(=O)Nc1cccc(-n2c(=O)n(C3CC3)c(=O)c3c(Nc4ccc(I)cc4F)n(C)c(=O)c(C)c32)c1 [Trametinib] (partner 0.02 µM)
In short: as §1

KN-93 + Luminespib = compound: CN(C/C=C/C1=CC=C(C=C1)Cl)CC2=CC=CC=C2N(CCO)S(=O)(=O)C3=CC=C(C=C3)OC [KN-93] + CCNC(=O)c1noc(-c2cc(C(C)C)c(O)cc2O)c1-c1ccc(CN2CCOCC2)cc1 [Luminespib] (partner 0.01 µM)
In short: as §1

SW 900
relative viability (KN-93; 0.08 µM): 0.9
relative viability (KN-93; 0.253 µM): 0.704
relative viability (KN-93; 2.53 µM): 1
relative viability (KN-93; 8 µM): 0.508
relative viability (KN-93 + Vorinostat; first compound 0.08 µM): 0.592
relative viability (KN-93 + Vorinostat; first compound 0.253 µM): 0.333
relative viability (KN-93 + Vorinostat; first compound 2.53 µM): 0.624
relative viability (KN-93 + Vorinostat; first compound 8 µM): 0.192
relative viability (KN-93 + AZD7762; first compound 0.08 µM): 0.669
relative viability (KN-93 + AZD7762; first compound 0.253 µM): 0.628
relative viability (KN-93 + AZD7762; first compound 2.53 µM): 0.684
relative viability (KN-93 + AZD7762; first compound 8 µM): 0.522
relative viability (KN-93 + Dasatinib; first compound 0.08 µM): 0.609
relative viability (KN-93 + Dasatinib; first compound 0.253 µM): 0.568
relative viability (KN-93 + Dasatinib; first compound 2.53 µM): 0.65
relative viability (KN-93 + Dasatinib; first compound 8 µM): 0.48
relative viability (KN-93 + Tozasertib; first compound 0.08 µM): 0.529
relative viability (KN-93 + Tozasertib; first compound 0.253 µM): 0.544
relative viability (KN-93 + Tozasertib; first compound 2.53 µM): 0.598
relative viability (KN-93 + Tozasertib; first compound 8 µM): 0.368
relative viability (KN-93 + Olaparib; first compound 0.08 µM): 1.13
relative viability (KN-93 + Olaparib; first compound 0.253 µM): 0.766
relative viability (KN-93 + Olaparib; first compound 2.53 µM): 1.13
relative viability (KN-93 + Olaparib; first compound 8 µM): 0.559
relative viability (KN-93 + Palbociclib; first compound 0.08 µM): 0.539
relative viability (KN-93 + Palbociclib; first compound 0.253 µM): 0.592
relative viability (KN-93 + Palbociclib; first compound 2.53 µM): 0.509
relative viability (KN-93 + Palbociclib; first compound 8 µM): 0.471
relative viability (KN-93 + Foretinib; first compound 0.08 µM): 0.851
relative viability (KN-93 + Foretinib; first compound 0.253 µM): 0.942
relative viability (KN-93 + Foretinib; first compound 2.53 µM): 1.02
relative viability (KN-93 + Foretinib; first compound 8 µM): 0.762
relative viability (KN-93 + Decitabine; first compound 0.08 µM): 0.443
relative viability (KN-93 + Decitabine; first compound 0.253 µM): 0.427
relative viability (KN-93 + Decitabine; first compound 2.53 µM): 0.452
relative viability (KN-93 + Decitabine; first compound 8 µM): 0.517
relative viability (KN-93 + Pemetrexed; first compound 0.08 µM): 0.522
relative viability (KN-93 + Pemetrexed; first compound 0.253 µM): 0.517
relative viability (KN-93 + Pemetrexed; first compound 2.53 µM): 0.491
relative viability (KN-93 + Pemetrexed; first compound 8 µM): 0.47
relative viability (KN-93 + OSI-027; first compound 0.08 µM): 0.571
relative viability (KN-93 + OSI-027; first compound 0.253 µM): 0.438
relative viability (KN-93 + OSI-027; first compound 2.53 µM): 0.624
relative viability (KN-93 + OSI-027; first compound 8 µM): 0.411
relative viability (KN-93 + Phenformin; first compound 0.08 µM): 0.547
relative viability (KN-93 + Phenformin; first compound 0.253 µM): 0.474
relative viability (KN-93 + Phenformin; first compound 2.53 µM): 0.656
relative viability (KN-93 + Phenformin; first compound 8 µM): 0.554
relative viability (KN-93 + Trametinib; first compound 0.08 µM): 0.93
relative viability (KN-93 + Trametinib; first compound 0.253 µM): 0.835
relative viability (KN-93 + Trametinib; first compound 2.53 µM): 1.04
relative viability (KN-93 + Trametinib; first compound 8 µM): 0.643
relative viability (KN-93 + Luminespib; first compound 0.08 µM): 0.166
relative viability (KN-93 + Luminespib; first compound 0.253 µM): 0.178
relative viability (KN-93 + Luminespib; first compound 2.53 µM): 0.145
relative viability (KN-93 + Luminespib; first compound 8 µM): 0.182
